Patent publication US9631001B2, “Peptide antagonists of the vasopressin-2 receptor” (COMMISSARIAT A L'ENERGIE ATOMIQUE ET AUX ENERGIES …, priority 2012, dated 2017)
Bridges are numbered along the chain shown (N, C = ends). Where no end group is shown, it is not given here.

Assays:
[1] = target: vasopressin V2 receptor subtype (V2R) (Homo sapiens, UniProt P30518); experiment: 3H-AVP competition binding on V2R membranes; conditions: for Ki: Ki (nM ± SEM), binding affinity of the ligands for V2R, 3H-AVP competition, mean ± SEM; for V2R inhibition, 3H-AVP binding (FIG. 15): compared with U-Da2a
Protocol: Reaction mixtures contained 50 mM Tris-HCl, pH 7.4, 10 mM MgCl2 and 1 g/L BSA in a final volume of 100 μL. Plates were incubated for 3 h at room temperature. Binding reactions were stopped by filtration through a GF/C filter pre-soaked in 0.5% polyethyleneimine on a cell harvester ([sequence], Courtaboeuf, France) and plates were dried. […] A one-site inhibition mass action curve was fitted to inhibition binding data using Kaleidagraph (SYNERGY SOFTWARE, Reading, Pa., USA).

V2R = V2R (Homo sapiens, UniProt P30518); conditions: vaptans, background; cited from earlier work

**Q.** Which Ki [1] does the source give for “RPKFCNLPVKPGPCNGFFSAFYYSQKTNKCHSFTYGGCKGNANRFSTIEKCRRTCVG (disulfide 5-55, 14-38, 30-51) [U-Da2a-S3K]” here?
**A.** 1.29 ± 0.34 nM

**Q.** With “DTx-E-R55 (LQHRTFCKLPAEPGPCKASIPAFYYNWAAKKCQLFHYGGCKGNANRFSTIEKCRRACVG; listed as Dendroaspis polylepis) [reference compound]” as the compound, how does the “V2R inhibition, 3H-AVP binding (FIG. 15)” value [1] read?
**A.** not able to block V2R

**Q.** With “CNLPVKPGPCNGFFSAFYYSQKTNKCHSFTYGGCKGNANRFSTIEKCRRTCVG (disulfide 1-51, 10-34, 26-47) [U-Da2a-delta4 N-ter]” as the compound, how does the Ki [1] read?
**A.** 1.57 ± 1.2 nM

**Q.** With “Dendrotoxin-K [DTx-K, reference compound]” as the compound, how does the “V2R inhibition, 3H-AVP binding (FIG. 15)” value [1] read?
**A.** no V2R inhibition

**Q.** Which V2/V1a selectivity index (V2R) does the source give for Cc1nc2c([nH]1)-c1ccccc1N(C(=O)c1ccc(NC(=O)c3ccccc3-c3ccccc3)cc1)CC2 [Conivaptan] here?
**A.** 0.15

**Q.** With CCOc1ccc2c(c1)C1(CCC(OCCN3CCOCC3)CC1)C(=O)N2S(=O)(=O)c1ccc(C(=O)NC(C)(C)C)cc1OC (stereo not shown) [Satavaptan] as the compound, how does the V2/V1a selectivity index (V2R) read?
**A.** 112

**Q.** With “SFCNLPVKPGPCNGFFSAFYYSQKTNKCHSFTYGGCKGNANRFSTIEKCRRTC (disulfide 3-53, 12-36, 28-49) [U-Da2a-delta2 N-ter/delta2 C-ter]” as the compound, how does the Ki [1] read?
**A.** 3.23 ± 2.31 nM
